Reference: BindingDB's records for doi:10.1021/acs.jmedchem.1c01426 (University of The Pacific, 2021)

Target: Transthyretin (Homo sapiens) (UniProt P02766)
Test: Induction of stability of human recombinant interleukin 2 assessed as binding affinity of drug-conjugated rIL2 to human TTR in PBS buffer at pH 7.4 measured after 20 mins fluorescence polarization assay

Kd: 0.851 µM
Structure (SMILES): Cc1n[nH]c(C)c1CCCOc1cc(OCCCc2cn(CCOCCOCCOCCOCCNC(=O)C3CCC(CN4C(=O)C=CC4=O)CC3)nn2)cc(C(=O)O)c1 (stereo unspecified)
